The source of these data is patent US8697662B2, “Methods for treating Kaposi sarcoma” (PTC Therapeutics, Inc., priority 2009, dated 2014).

Some results are limits rather than exact numbers.

In test [1] the test system is hypoxia-inducible endogenous VEGF expression. In words: Hypoxia-inducible endogenous VEGF expression ELISA in HeLa cells, dose-response EC50 (Table 3). It is filed as cell-based. Particulars: Homo sapiens, hypoxic conditions (1% O2), VEGF ELISA of conditioned media. As for the experimental part:
The ability of the Compounds to modulate hypoxia-inducible endogenous VEGF expression may be analyzed as follows. VEGF protein levels may be monitored by an ELISA assay (R&D Systems). Briefly, HeLa cells may be cultured for 24-48 hours under hypoxic conditions (1% O2, 5% CO2, balanced with nitrogen) in the presence or absence of a Compound. The conditioned media may then be assayed by ELISA, and the concentration of VEGF calculated from the standard ELISA curve of each assay.
A dose-response analysis may be performed using the ELISA assay and conditions described above. The conditions for the dose-response ELISA are analogous to those described above. A series of, e.g., seven different concentrations may be analyzed. In parallel, a dose-response cytotoxicity assay may be performed using Cell Titer Glo (Promega) under the same conditions as the ELISA to ensure that the inhibition of VEGF expression was not due to the cytotoxicity.
A general note: In an ELISA, binding on a coated surface is turned into a signal by an enzyme label.

Test [2] has as its system KS-like angioproliferative lesions. Conditions: nude mice, doses similar to AIDS patients; cited from earlier work.
In test [3] the test system is HT1080 xenografts. The experiment in a line: Time course of tumor size and plasma human VEGF in HT1080 xenografts. Particulars: by Day 1. It is filed as in vivo, athymic nude mice. As for the experimental part:
(§1) Experimental Design. HT1080 cells (5×10^6 cells/mouse) were implanted subcutaneously in male athymic nude mice.
Tumor size was measured by calipers immediately pre-treatment and at the time of sacrifice on Day 1, 2, or 3 (5 mice per group per day). At sacrifice, the plasma was collected for assay of pathologic human VEGF concentration using an ELISA that recognizes human VEGF121 and VEGF165 (as described in Section 9.1.1.1).
Background: In xenograft studies the graft and the host belong to different species.

The subject of test [4] is HT1080 xenografts. In words: BrdU labeling of tumor cells from HT1080 xenografts in vivo. Further details: species or system athymic nude mice. Conditions: HT1080 xenografts, 1, 2, or 3 days of treatment. As for the experimental part: as §1
The mice were sacrificed 3 hours later, and the tumors collected. A single cell suspension was prepared from the tumor cells. The cells were permeabilized and an antibody to BrdU was used to stain cells that had entered S phase during the labeling period. The proportion of cells actively synthesizing DNA was determined by cell sorting.

In another test the test system is HT1080 cells. In words: Cell cycle analysis by propidium iodide flow cytometry in HT1080 cells (S-phase accumulation, Table 24). It is filed as cell-based, human. Particulars: same tumor cells; data not shown. As for the experimental part:
Experimental Design. […] After treatment, cells were trypsinized, and stained with propidium iodide (PI) dye to measure DNA content of individual cells by flow cytometry. Output comprised histograms showing relative DNA content in 10,000 cells.
While compounds which cause greater than 20% of the cells to accumulate in S-phase at 100 nM are considered active, a larger percentage of cells may be accumulated in S-phase at lower doses depending on the Compound, as shown in FIG. 12 for example.
For orientation: Flow cytometry measures light scatter and fluorescence of single cells or particles in a stream.

In test [5] the test system is primary endothelial cells. Conditions: in-vitro; cited from earlier work.

The molecule `CC(CO)(CO)COc1ccc([C@H]2c3[nH]c4ccc(Cl)cc4c3CCN2C(=O)Oc2ccc(F)cc2)cc1` [Compound 1335] gave a half-maximal effective concentration (EC50) in test [1] (24-48 hours) of 8 to 40 nM. In the case of `CC(C)(C)NC(=O)[C@@H]1CN(Cc2cccnc2)CCN1C[C@@H](O)C[C@@H](Cc1ccccc1)C(=O)N[C@H]1c2ccccc2C[C@H]1O` [indinavir], in test [2], the “macroscopic KS-like angioproliferative lesions (in words)” value is “reduction in the number and size”.

On to `NC(=O)COc1ccc(C2c3[nH]c4ccc(Cl)cc4c3CCN2C(=O)Oc2ccc(Cl)cc2)cc1` (stereo not drawn) [Compound 1161], for which the EC50 in test [1] is less than 8 nM. For the molecule `COc1cccc2c1C(=O)c1c(O)c3c(c(O)c1C2=O)C[C@@](O)(C(=O)CO)C[C@@H]3O[C@H]1C[C@H](N)[C@H](O)[C@H](C)O1` [doxorubicin, reference compound], the “pathologic plasma human VEGF levels (in words)” value with HT1080 xenografts [3] is listed as “numerically lower than in control animals”. Further, in the test on HT1080 xenografts [4], the “BrdU staining of tumor cells (fraction in S phase) (in words)” value is “decreased the percentage of tumor cells staining with BrdU”. As for `NC(Cn1ccc(=O)c(O)c1)C(=O)O` (stereo not drawn) [mimosine, reference compound], in the test with HT1080 cells, the “effect on cell cycle (and VEGF production) (in words)” value is “does not delay or prolong the cell cycle or reduce VEGF production”. Regarding `CC(C)(C)NC(=O)[C@@H]1C[C@@H]2CCCC[C@@H]2CN1C[C@@H](O)[C@H](Cc1ccccc1)NC(=O)[C@H](CC(N)=O)NC(=O)c1ccc2ccccc2n1` [saquinavir], the “macroscopic KS-like angioproliferative lesions (in words)” value in test [2] was “reduction in the number and size”. In the case of `CC(C)c1nc(CN(C)C(=O)N[C@H](C(=O)N[C@@H](Cc2ccccc2)C[C@H](O)[C@H](Cc2ccccc2)NC(=O)OCc2cncs2)C(C)C)cs1` [ritonavir], in test [5], the “activation and proliferation of primary endothelial cells (in words)” value was “inhibition of activation and proliferation”; the “production of TNF-α, IL-6, IL-8 and VEGF (in words)” value is recorded as “decreased production”.

What is called EC50 is the concentration needed to bring the measured effect to its halfway point. Low values mean an effect from little substance, high ones a need for much substance.
